Data reported in patent publication US10231939B2, “Hydroxytyrosol and oleuropein compositions for induction of DNA damage, cell death and LSD1 inhibition” (priority 2012, dated 2019).

Assays:
Assay in all cases: Cell proliferation (Cell Titer-Blue Assay)
Type in all cases: cell-based, human
[1] = test system: MyLa CD4+ cells; settings: for EC50: Homo sapiens
Protocol: (§1) Human cutaneous T cell lymphoma MyLa cells expressing CD4^+ (ECACC No. 95051032) and CD8^+ (ECACC No. 95051033) were obtained from the European Culture Collection of Cell Cultures (ECACC; CAMR, Salisbury, UK) and maintained in complete-RPMI 1640 medium supplemented with 2 mM glutamine (GIBCO-Invitrogen), 10% (v/v) human AB serum (Lonza, Basel, Switzerland) and 100 u/mL IL-2 (Sigma-Aldrich, USA) or 100 u/mL IL-2 (Sigma-Aldrich, USA) with 100 u/mL IL-4 (R&D Systems, MN, USA) respectively. Cells were cultured in suspension in a humidified atmosphere of 5% (v/v) CO2 at 37° C. and were maintained in exponential growth phase. For maintenance, cells were passaged three times per week and seeded at ratios 1:2. Liver hepatocellular carcinoma Hep G2 cells (ATCC No. […]) were maintained in RPMI-1640 supplemented with 10% fetal bovine serum (FBS), and were cultured in 75 cm^2 T-flask and maintained at 37° C. in 5% CO2 humidified incubator. Cell proliferation was determined using the Cell Titer-Blue Assay kit (Promega, Madison, Wis., USA). Cells were seeded at 10,000 cells per well in black flat bottom 96-well plates (Nalge Nunc, Penfield, N.Y., USA) and treated with serial doses of hydroxytyrosol (0-3200 μM) and oleuropein (0-12800 μM) for 24, 48 and 120 hours at 37° C., 5% (v/v) CO2. Following incubation with the test samples, Cell-Titer Blue reagent (20 μl per 100 μL) was added to each well and mixed gently for 5 sec prior to 4 hr incubation at 37° C. in a humidified atmosphere of 5% CO2. Fluorescence intensity (λex=550 nm and λem=615 nm) was determined using a Perkin Elmer Victor3 multilabel microplate counter (PerkinElmer, Waltham, Mass., USA). Data were expressed as % relative cell viability compared to untreated cells after correction of subtracting the media control fluorescence reading.

[2] = test system: MyLa CD8+ cells; settings: for EC50: Homo sapiens
Protocol: as §1

[3] = test system: Hep G2 cells; settings: for EC50: Homo sapiens, HepG2
Protocol: as §1

[4] = test system: A431 cells; settings: for EC50: Homo sapiens, A-431
Protocol: (§2) Human epidermal squamous carcinoma A431 cells (ATCC No. CRL-1555), human breast adenocarcinoma MCF7 cells (ATCC No. HTB-22) and brain glioblastoma T98G cells (ATCC No. CRL-1690) obtained from the ATCC were grown as monolayers in a Modified Eagle's Medium (a-MEM) supplemented with 2 mmol/L HEPES (pH 7.4; GIBCO-Invitrogen), 10% (v/v) FBS, 2 mmol/L L-glutamine (GIBCO-Invitrogen), and 80 units gentamicin (GIBCO-Invitrogen). Human epithelial lung adenocarcinoma A549 cells (ATCC No. CCL-185), human liver hepatocellular carcinoma and human colorectal carcinoma HT-29 cells (ATCC No. HTB-38) were obtained from the American Type Culture Collection and grown as monolayers in DMEM (Gibco, Invitrogen) supplemented with 10% (v/v) FBS (In Vitro Technologies), antibody/antimycotic containing 100 U/mL Penicillin, 100 μg/mL Streptomycin, 0.25 μg/mL Amphotericin B (Invitrogen, Carlsbad). All adherent cells were maintained in the exponential growth phase in T75 cm^2 vented culture flasks and passaged by 0.05% (v/v) trypsin-EDTA (GIBCO, Invitrogen) before seeding; at 37° C., 5% (v/v) CO2. Cell proliferation was determined using the Cell Titer-Blue Assay kit (Promega, Madison, Wis., USA). Cells were seeded at 10,000 cells per well in black flat bottom 96-well plates (Nalge Nunc, Penfield, N.Y., USA) and treated with serial doses of hydroxytyrosol (0-3200 μM) and oleuropein (0-12800 μM) for 24, 48 and 120 hours at 37° C., 5% (v/v) CO2. Following incubation with the test samples, Cell-Titer Blue reagent (20 μl per 100 μL) was added to each well and mixed gently for 5 sec prior to 4 hr incubation at 37° C. in a humidified atmosphere of 5% CO2. Fluorescence intensity (λex=550 nm and λem=615 nm) was determined using a Perkin Elmer Victor3 multilabel microplate counter (PerkinElmer, Waltham, Mass., USA). Data were expressed as % relative cell viability compared to untreated cells after correction of subtracting the media control fluorescence reading.

[5] = test system: HT-29 cells; settings: for EC50: Homo sapiens
Protocol: as §2

[6] = test system: MCF7 cells; settings: for EC50: Homo sapiens
Protocol: as §2

[7] = test system: PBMC; settings: for EC50: Homo sapiens, 24 hr; for cell proliferation of PBMC: 120 hours incubation
Protocol: Human peripheral blood mononuclear cells (PBMCs) were fractionated using the Ficoll Plaque fractionation method from whole blood obtained from the Australian Red Cross Blood Bank (ARCB) under ethic approval (#304/12). Cells were harvested fresh on the day of the experiments and maintained in complete-RPMI-1640 medium supplemented with 10% FBS, 2 mM L-glutamine and 20 μg/mL gentamicin at 37° C., 5% (v/v) CO2. Cell proliferation was determined using the Cell Titer-Blue Assay kit (Promega, Madison, Wis., USA). Cells were seeded at 10,000 cells per well in black flat bottom 96-well plates (Nalge Nunc, Penfield, N.Y., USA) and treated with serial doses of hydroxytyrosol (0-3200 μM) and oleuropein (0-12800 μM) for 24, 48 and 120 hours at 37° C., 5% (v/v) CO2. Following incubation with the test samples, Cell-Titer Blue reagent (20 μl per 100 μL) was added to each well and mixed gently for 5 sec prior to 4 hr incubation at 37° C. in a humidified atmosphere of 5% CO2. Fluorescence intensity (λex=550 nm and λem=615 nm) was determined using a Perkin Elmer Victor3 multilabel microplate counter (PerkinElmer, Waltham, Mass., USA). Data were expressed as % relative cell viability compared to untreated cells after correction of subtracting the media control fluorescence reading.

SMILES	EC10 (concentration required to reduce the cell viability of the population to 10%) ([1]; 120 hr) [µM]	EC50 ([1]; 24 hr) [µM]	EC50 ([1]; 48 hr) [µM]	EC50 ([1]; 120 hr) [µM]	EC10 (concentration required to reduce the cell viability of the population to 10%) ([2]; 120 hr) [µM]	EC50 ([2]; 24 hr) [µM]	EC50 ([2]; 48 hr) [µM]	EC50 ([2]; 120 hr) [µM]	EC10 (concentration required to reduce the cell viability of the population to 10%) ([3]; Hep-G2, 120 hr) [µM]	EC50 ([3]; Hep-G2, 24 hr) [µM]	EC50 ([3]; Hep-G2, 48 hr) [µM]	EC50 ([3]; Hep-G2, 120 hr) [µM]	EC10 (concentration required to reduce the cell viability of the population to 10%) ([4]; A431, 120 hr) [µM]	EC50 ([4]; A431, 24 hr) [µM]	EC50 ([4]; A431, 48 hr) [µM]	EC50 ([4]; A431, 120 hr) [µM]	EC10 (concentration required to reduce the cell viability of the population to 10%) ([5]; HT-29, 120 hr) [µM]	EC50 ([5]; HT-29, 24 hr) [µM]	EC50 ([5]; HT-29, 48 hr) [µM]	EC50 ([5]; HT-29, 120 hr) [µM]	also measured
C/C=C1/[C@H](O[C@@H]2O[C@H](CO)[C@@H](O)[C@H](O)[C@H]2O)OC=C(C(=O)OC)[C@H]1CC(=O)OCCc1ccc(O)c(O)c1 [OL, oleuropein]	4800	647	3800	3400	3020	647	3600	270	2600	703	2400	1300	4450	1750	4400	2900	2950	1580	2500	1850	EC50 ([6]; MCF7, 24 hr): 4750 µM; EC50 ([6]; MCF7, 48 hr): 3000 µM; EC50 ([6]; MCF7, 120 hr): 4100 µM; EC10 (concentration required to reduce the cell viability of the population to 10%) ([6]; MCF7, 120 hr): 4700 µM; EC50 [7]: 2710 µM
OCCc1ccc(O)c(O)c1 [HT, 4-(2-hydroxyethyl)-1,2-benzenediol]	760	1010	870	400	650	460	450	230	360	427	470	205	1000	870	920	480	380	800	230	310	EC50 ([6]; MCF7, 24 hr): 580 µM; EC50 ([6]; MCF7, 48 hr): 900 µM; EC50 ([6]; MCF7, 120 hr): 520 µM; EC10 (concentration required to reduce the cell viability of the population to 10%) ([6]; MCF7, 120 hr): 750 µM; cell proliferation of PBMC [7]: increases the proliferation; cell proliferation of PBMC ([7]; listed as hydroxytyrosol): attenuated; EC50 [7]: 855 µM
